One assay has as its system E. coli 470. The experiment in a line: In vitro antibacterial activity (MIC), BHI agar. Format: cell-based. Conditions: read-out: Minimum Inhibitory Concentration (MIC). On the procedure:
(§1) The procedure which is followed is the one recommended by the International Collaborative Study on Antibiotic Sensitivity Testing [Ericcson and Sherris, Acta. Pathologica et Microbiologia Scandinav, Supp. 217, Sections A and B: 64-68 (1971)], and employs brain heart infusion (BHI) agar and the inocula replicating device. Overnight growth tubes are diluted 100 fold for use as the standard inoculum (20,000-10,000 cells in approximately 0.002 ml are placed on the agar surface; 20 ml of BHI agar/dish). Twelve 2 fold dilutions of the test compound are employed, with initial concentration of the test drug being 200 mcg/ml. Single colonies are disregarded when reading plates after 18 hours at 37° C. The susceptibility (MIC) of the test organism is accepted as the lowest concentration of compound capable of producing complete inhibition of growth as judged by the naked eye. A comparison of the in vitro activity of various compounds of the formulae (I) and (II) with tylonolide is recorded in Table 1.

In a further assay the test system is Neiss. sic. The experiment in a line: In vitro antibacterial activity (MIC), BHI agar. The conditions noted are these: 18 hours at 37° C., read-out: Minimum Inhibitory Concentration (MIC). Format: cell-based. Here is the method:
as §1

For another assay, the system named is Past. mult. 1. The experiment in a line: In vitro antibacterial activity (MIC), BHI agar. Format: cell-based. The conditions noted are these: 18 hours at 37° C., read-out: Minimum Inhibitory Concentration (MIC). Here is the method: as §1
The test system of a further assay is Staph. aur. 400. The experiment in a line: In vitro antibacterial activity (MIC), BHI agar. It is filed as cell-based. The conditions noted are these: 18 hours at 37° C., read-out: Minimum Inhibitory Concentration (MIC). On the procedure: as §1
Another assay relates to Staph. aur. 52. In words: In vitro antibacterial activity (MIC), BHI agar. It is filed as cell-based. Conditions: 18 hours at 37° C., read-out: Minimum Inhibitory Concentration (MIC). Here is the method:
as §1

The subject of a further assay is Staph. aur. 5. The experiment in a line: In vitro antibacterial activity (MIC), BHI agar. Format: cell-based. Conditions: 18 hours at 37° C., read-out: Minimum Inhibitory Concentration (MIC). Here is the method: as §1
Another assay concerns Staph. epi. 111. The experiment in a line: In vitro antibacterial activity (MIC), BHI agar. Format: cell-based. The conditions noted are these: 18 hours at 37° C., read-out: Minimum Inhibitory Concentration (MIC). Here is the method:
as §1

Another assay concerns Staph. epi. 126. The experiment in a line: In vitro antibacterial activity (MIC), BHI agar. Format: cell-based. Conditions: 18 hours at 37° C., read-out: Minimum Inhibitory Concentration (MIC). On the procedure:
as §1

For the next assay, the system named is Staph. epi. 87. The experiment in a line: In vitro antibacterial activity (MIC), BHI agar. It is filed as cell-based. Conditions: read-out: Minimum Inhibitory Concentration (MIC). Here is the method:
as §1

The subject of a further assay is Strep. faec. 6. The experiment in a line: In vitro antibacterial activity (MIC), BHI agar. Conditions: 18 hours at 37° C., read-out: Minimum Inhibitory Concentration (MIC). Format: cell-based. Here is the method: as §1
A further assay relates to Strep. pneum. 12. In words: In vitro antibacterial activity (MIC), BHI agar. It is filed as cell-based. Conditions: 18 hours at 37° C., read-out: Minimum Inhibitory Concentration (MIC). On the procedure: as §1
In another assay the test system is Strep. pyog. 203. The experiment in a line: In vitro antibacterial activity (MIC), BHI agar. The conditions noted are these: 18 hours at 37° C., read-out: Minimum Inhibitory Concentration (MIC). It is filed as cell-based. On the procedure: as §1
Assay [1] concerns infections by sensitive bacteria. In words: In vivo activity against acute experimental infections in mice (PD50). The conditions noted are these: Mus musculus, sc; subcutaneous; mice infected intraperitoneally, at least one LD100; organism not given; read-out: PD50 (dose which protects 50% of the animals from infection). The source says: In determining such activity, acute experimental infections are produced in mice by the intraperitoneal inoculation of the mice with a standardized culture of the test organism suspended in 5 percent hog gastric mucin. Infection severity is standarized so that the mice receive at least one LD100 dose of the organism (LD100 : the minimum inoculum of organism required to consistently kill 100 percent of the infected, nontreated control mice). The test compound is then subcutaneously or orally administered at various dosage levels to groups of infected mice. At the end of the test, the activity of the mixture is assessed by counting the number of survivors among treated animals at a given dose. Activity is expressed as the percentage of animals which survive at a given dose, or calculated as a PD50 (dose which protects 50% of the animals from infection).

For another assay, the system named is Bac. sub. 1. The experiment in a line: In vitro antibacterial activity (MIC), BHI agar. The conditions noted are these: 18 hours at 37° C., read-out: Minimum Inhibitory Concentration (MIC). It is filed as cell-based. On the procedure: as §1
Where [2] appears, read: Escherichia coli, E. coli 470, BHI agar, 18 hours at 37° C.

Values after ≈ are worked out from the molar mass of the structure shown. Like-named read-outs stand apart in the source and are kept apart here.

Regarding `CCC1OC(=O)CC(O)C(C)C(OC2OC(C)C(O)C(N(C)C)C2O)C(CC=O)CC(C)C(=O)C=CC(C)=CC1CO` [(a), 5-(3,6-dideoxy-3-dimethylamino-beta-D-glucopyrnosyloxy)-6-formylmethyl-3-hydroxy-14-hydroxymethyl-4,8,12-trimethyl-9-oxo-10,12-heptadecadien-15-olide, reference compound], the MIC in the assay on E. coli 470 (Escherichia coli, 470, 18 h) was 3.12 µg/mL (≈ 5.22 µM); with Neiss. sic. it was 6.25 µg/mL (≈ 10.5 µM); with Past. mult. 1, 1.56 µg/mL (≈ 2.61 µM); in the assay with Staph. aur. 400 it was 1.56 µg/mL (≈ 2.61 µM); with Staph. aur. 52, 0.78 µg/mL (≈ 1.3 µM); in the assay with Staph. aur. 5 it was 0.78 µg/mL (≈ 1.3 µM). The MIC worked out at 1.56 µg/mL (≈ 2.61 µM) in the assay on Staph. epi. 111; 0.78 µg/mL (≈ 1.3 µM) in the assay on Staph. epi. 126; 3.12 µg/mL (≈ 5.22 µM) in the assay with Staph. epi. 87 (18 h); 0.78 µg/mL (≈ 1.3 µM) in the assay with Strep. faec. 6; 0.1 µg/mL (≈ 0.167 µM) with Strep. pneum. 12; 0.39 µg/mL (≈ 0.652 µM) in the assay with Strep. pyog. 203. In assay [1], the ED50 came out at 3.12 mg/kg.

Regarding `CCC1OC(=O)CC(O)C(C)C(OC2OC(C)C(O)C(N(C)C)C2O)C(CC=O)CC(C)C(=O)C=CC(C)=CC1COS(=O)(=O)c1ccc(C)cc1` (stereo not shown) [(b)], the MIC in the assay on Bac. sub. 1 was determined as 0.78 µg/mL (≈ 1.04 µM); with Neiss. sic., 1.56 µg/mL (≈ 2.07 µM); with Past. mult. 1 it was 3.12 µg/mL (≈ 4.15 µM); with Staph. aur. 400, 0.78 µg/mL (≈ 1.04 µM); with Staph. aur. 52, 0.78 µg/mL (≈ 1.04 µM); in the assay on Staph. aur. 5 it was 0.78 µg/mL (≈ 1.04 µM). Also, the MIC in the assay with Staph. epi. 111 stood at 1.56 µg/mL (≈ 2.07 µM); with Staph. epi. 126, 1.56 µg/mL (≈ 2.07 µM); in the assay on Strep. faec. 6 it was 0.39 µg/mL (≈ 0.519 µM); in the assay on Strep. pyog. 203, 0.2 µg/mL (≈ 0.266 µM). Moreover, the ED50 in assay [1] was 19 mg/kg.

With `CCC1OC(=O)CC(O)C(C)C(OC2OC(C)C(O)C(N(C)C)C2O)C(CC=NN(C)C)CC(C)C(=O)C=CC(C)=CC1COS(=O)(=O)c1ccc(C)cc1` (stereo not shown) [(c)], the MIC turned out to be 0.2 µg/mL (≈ 0.252 µM) with Bac. sub. 1; 0.78 µg/mL (≈ 0.982 µM) in the assay with Neiss. sic.; 3.12 µg/mL (≈ 3.93 µM) with Past. mult. 1; 0.2 µg/mL (≈ 0.252 µM) with Staph. aur. 400; 0.2 µg/mL (≈ 0.252 µM) in the assay with Staph. aur. 52; 0.1 µg/mL (≈ 0.126 µM) with Staph. aur. 5. Moreover, the MIC was 0.1 µg/mL (≈ 0.126 µM) in the assay with Staph. epi. 111, 1.56 µg/mL (≈ 1.96 µM) in the assay on Staph. epi. 126, 0.1 µg/mL (≈ 0.126 µM) in the assay with Strep. faec. 6 and 0.05 µg/mL (≈ 0.063 µM) in the assay on Strep. pyog. 203. The ED50 in assay [1] was determined as 50 mg/kg.

For the compound `CCC1OC(=O)CC(O)C(C)C(OC2OC(C)C(O)C(N(C)C)C2O)C(CC=O)CC(C)C(=O)C=CC(C)=CC1CI` (stereo not shown) [(d)], the MIC stood at 0.78 µg/mL (≈ 1.1 µM) in the assay with Bac. sub. 1; 0.78 µg/mL (≈ 1.1 µM) in the assay on Neiss. sic.; 1.56 µg/mL (≈ 2.2 µM) in the assay on Staph. aur. 400; 0.39 µg/mL (≈ 0.551 µM) in the assay on Staph. aur. 52; 0.39 µg/mL (≈ 0.551 µM) in the assay with Staph. aur. 5; 0.78 µg/mL (≈ 1.1 µM) in the assay on Staph. epi. 111. Also, the MIC with Staph. epi. 126 was 6.25 µg/mL (≈ 8.83 µM); in the assay on Strep. faec. 6, 3.12 µg/mL (≈ 4.41 µM); with Strep. pyog. 203, 0.1 µg/mL (≈ 0.141 µM).

For `CCC1OC(=O)CC(O)C(C)C(OC2OC(C)C(O)C(N(C)C)C2O)C(CC=NN(C)C)CC(C)C(=O)C=CC(C)=CC1CI` (stereo not shown) [(e)], the MIC worked out at 0.1 µg/mL (≈ 0.133 µM) in the assay with Bac. sub. 1; 0.39 µg/mL (≈ 0.52 µM) in the assay with Neiss. sic.; 1.56 µg/mL (≈ 2.08 µM) with Past. mult. 1; 0.2 µg/mL (≈ 0.267 µM) in the assay with Staph. aur. 400; 0.2 µg/mL (≈ 0.267 µM) in the assay with Staph. aur. 52; 0.2 µg/mL (≈ 0.267 µM) in the assay with Staph. aur. 5. The MIC came to 0.2 µg/mL (≈ 0.267 µM) in the assay on Staph. epi. 111, 0.78 µg/mL (≈ 1.04 µM) in the assay with Staph. epi. 126, 0.39 µg/mL (≈ 0.52 µM) in the assay with Strep. faec. 6 and 0.1 µg/mL (≈ 0.133 µM) in the assay with Strep. pyog. 203. In addition, the ED50 in assay [1] is more than 50 mg/kg.

Turning to `CCC1OC(=O)CC(OC(C)=O)C(C)C(OC2OC(C)C(O)C(N(C)C)C2O)C(CC=O)CC(C)C(=O)C=CC(C)=CC1CN(C)C` (stereo not shown) [(f)], the MIC with Bac. sub. 1 stood at 0.78 µg/mL (≈ 1.17 µM); in the assay with Neiss. sic., 3.12 µg/mL (≈ 4.68 µM); with Past. mult. 1 it was 6.25 µg/mL (≈ 9.37 µM); in the assay on Staph. aur. 400, 3.12 µg/mL (≈ 4.68 µM); with Staph. aur. 52, 3.12 µg/mL (≈ 4.68 µM); in the assay with Staph. aur. 5 it was 3.12 µg/mL (≈ 4.68 µM). Further, the MIC was 1.56 µg/mL (≈ 2.34 µM) in the assay on Staph. epi. 111, 1.56 µg/mL (≈ 2.34 µM) in the assay on Staph. epi. 126, 6.25 µg/mL (≈ 9.37 µM) in the assay on Strep. faec. 6 and 0.39 µg/mL (≈ 0.585 µM) with Strep. pyog. 203.

Turning to `CCC1OC(=O)CC(O)C(C)C(OC2OC(C)C(O)C(N(C)C)C2O)C(CC=O)CC(C)C(=O)C=CC(C)=CC1CCl` (stereo not shown) [(g)], the MIC was 0.1 µg/mL (≈ 0.162 µM) in the assay on Bac. sub. 1; 0.78 µg/mL (≈ 1.27 µM) with E. coli 470 (setting [2]); 1.56 µg/mL (≈ 2.53 µM) with Neiss. sic.; 1.56 µg/mL (≈ 2.53 µM) in the assay with Past. mult. 1; 0.39 µg/mL (≈ 0.633 µM) in the assay with Staph. aur. 400; 0.78 µg/mL (≈ 1.27 µM) with Staph. aur. 52. Besides, the MIC with Staph. aur. 5 stood at 0.78 µg/mL (≈ 1.27 µM); in the assay with Staph. epi. 111, 0.2 µg/mL (≈ 0.325 µM); in the assay with Staph. epi. 126, 0.78 µg/mL (≈ 1.27 µM); with Staph. epi. 87 (Staph. epi. 87, BHI agar, 18 hours at 37° C.), 25 µg/mL (≈ 40.6 µM); in the assay with Strep. faec. 6, 0.78 µg/mL (≈ 1.27 µM); in the assay on Strep. pneum. 12 it was 0.02 µg/mL (≈ 0.0325 µM). In addition, the MIC in the assay on Strep. pyog. 203 is 0.39 µg/mL (≈ 0.633 µM). The ED50 in assay [1] was determined as 13 mg/kg.

Turning to `CCC1OC(=O)CC(O)C(C)C(OC2OC(C)C(O)C(N(C)C)C2O)C(CC=O)CC(C)C(=O)C=CC(C)=CC1CN(C)C` (stereo not shown) [(h)], the MIC in the assay with E. coli 470 (setting [2]) stood at 1.56 µg/mL (≈ 2.5 µM); in the assay with Neiss. sic., 12.5 µg/mL (≈ 20 µM); with Past. mult. 1, 1.56 µg/mL (≈ 2.5 µM); with Staph. aur. 400, 1.56 µg/mL (≈ 2.5 µM); in the assay on Staph. aur. 52 it was 1.56 µg/mL (≈ 2.5 µM); in the assay with Staph. aur. 5, 0.78 µg/mL (≈ 1.25 µM). Moreover, the MIC was found to be 0.78 µg/mL (≈ 1.25 µM) with Staph. epi. 111; 3.12 µg/mL (≈ 4.99 µM) in the assay on Staph. epi. 126; 3.12 µg/mL (≈ 4.99 µM) in the assay with Strep. faec. 6; 0.39 µg/mL (≈ 0.624 µM) in the assay with Strep. pneum. 12; 0.2 µg/mL (≈ 0.32 µM) with Strep. pyog. 203. In addition, the ED50 in assay [1] was 2.4 mg/kg.
